Assay results as given in ChEMBL document CHEMBL1201862, “PubChem BioAssay data set” (2004).
Active and inactive are the calls of the source.

Assays:
Format in all cases: functional
[1] = target: T1, Sentrin-specific protease 8 (Homo sapiens, UniProt Q96LD8)
T1 sequence (Q96LD8 whole entry): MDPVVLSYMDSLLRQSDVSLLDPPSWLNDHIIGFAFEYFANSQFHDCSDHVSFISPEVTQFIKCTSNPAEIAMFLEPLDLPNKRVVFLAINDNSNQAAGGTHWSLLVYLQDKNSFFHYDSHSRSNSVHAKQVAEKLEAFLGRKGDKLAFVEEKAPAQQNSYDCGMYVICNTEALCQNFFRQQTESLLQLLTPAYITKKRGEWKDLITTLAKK

[2] = Luminescence Cell-Based Dose Response HTS to Identify Activators of Luciferase Translation or Activity in H4 […] Cells. [Related pubchem assays: 1829 (Project Summary), 1814 (Primary HTS)]
[3] = target: T2, Apoptotic protease-activating factor 1 (Homo sapiens, UniProt O14727)
T2 sequence (O14727 whole entry): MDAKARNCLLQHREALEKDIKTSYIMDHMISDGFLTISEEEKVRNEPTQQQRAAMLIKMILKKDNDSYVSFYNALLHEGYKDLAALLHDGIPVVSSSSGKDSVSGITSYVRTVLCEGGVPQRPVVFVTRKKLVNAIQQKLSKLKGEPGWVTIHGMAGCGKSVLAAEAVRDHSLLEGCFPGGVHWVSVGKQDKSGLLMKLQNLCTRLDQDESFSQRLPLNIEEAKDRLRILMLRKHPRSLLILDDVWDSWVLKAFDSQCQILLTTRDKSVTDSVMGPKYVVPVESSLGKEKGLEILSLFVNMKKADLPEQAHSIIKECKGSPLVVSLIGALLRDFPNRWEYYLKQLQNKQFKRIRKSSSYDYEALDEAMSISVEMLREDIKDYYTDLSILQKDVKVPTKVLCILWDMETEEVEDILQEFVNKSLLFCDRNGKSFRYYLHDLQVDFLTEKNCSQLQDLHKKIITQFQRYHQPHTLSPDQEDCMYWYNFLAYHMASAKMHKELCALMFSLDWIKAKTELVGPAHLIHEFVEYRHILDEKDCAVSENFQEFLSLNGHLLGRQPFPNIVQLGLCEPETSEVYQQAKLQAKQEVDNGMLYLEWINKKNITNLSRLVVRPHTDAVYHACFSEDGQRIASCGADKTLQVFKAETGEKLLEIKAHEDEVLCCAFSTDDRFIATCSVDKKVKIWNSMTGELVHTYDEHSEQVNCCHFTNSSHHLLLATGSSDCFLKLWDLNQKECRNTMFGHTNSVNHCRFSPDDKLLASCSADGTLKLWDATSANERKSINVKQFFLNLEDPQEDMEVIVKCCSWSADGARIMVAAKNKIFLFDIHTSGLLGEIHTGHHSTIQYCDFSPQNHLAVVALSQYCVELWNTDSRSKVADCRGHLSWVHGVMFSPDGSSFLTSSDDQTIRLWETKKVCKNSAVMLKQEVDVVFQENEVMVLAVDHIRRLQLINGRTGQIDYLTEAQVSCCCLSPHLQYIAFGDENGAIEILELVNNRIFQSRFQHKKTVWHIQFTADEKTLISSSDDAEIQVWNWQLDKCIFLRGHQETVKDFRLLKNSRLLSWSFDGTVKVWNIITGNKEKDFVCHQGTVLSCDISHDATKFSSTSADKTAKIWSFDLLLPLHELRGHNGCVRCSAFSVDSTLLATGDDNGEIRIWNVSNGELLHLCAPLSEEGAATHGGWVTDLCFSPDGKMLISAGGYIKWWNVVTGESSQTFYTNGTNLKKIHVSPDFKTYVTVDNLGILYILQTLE

[4] = target: T1, Sentrin-specific protease 8; remark: listed apart in the source
[5] = target: Cyclin-dependent kinase 1 (Homo sapiens, UniProt P06493);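 also: Kinome-wide panel profiling, with the target listed as panel member CDC2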
[6] = target: MAP kinase-activated protein kinase 2 (Homo sapiens, UniProt P49137);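 also: measured as one member of a kinome-wide kinase panel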
[7] = target: Serine/threonine-protein kinase PLK4 (Homo sapiens, UniProt O00444);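 also: PLK4 measured as one member of a kinome-wide kinase profiling panel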
[8] = target: Calcium/calmodulin-dependent protein kinase type II subunit gamma (Homo sapiens, UniProt Q13555)
[9] = target: RAC-gamma serine/threonine-protein kinase (Homo sapiens, UniProt Q9Y243)
[10] = target: Cell division cycle 7-related protein kinase (Homo sapiens, UniProt O00311);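 also: value obtained from a kinome-wide kinase panel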
[11] = target: Serine/threonine-protein kinase Chk2 (Homo sapiens, UniProt O96017);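 also: CHEK2 entry within a kinome-wide screening panel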
[12] = target: STE20-like serine/threonine-protein kinase (Homo sapiens, UniProt Q9H2G2)
[13] = target: MAP kinase-activated protein kinase 5 (Homo sapiens, UniProt Q8IW41);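 also: measured as one member of a kinome panel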
[14] = target: Serine/threonine-protein kinase 17A (Homo sapiens, UniProt Q9UEE5)
[15] = target: Mitogen-activated protein kinase kinase kinase kinase 5 (Homo sapiens, UniProt Q9Y4K4);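 also: measured as one member of a kinome-spanning kinase panel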
[16] = target: Tyrosine-protein kinase FRK (Homo sapiens, UniProt P42685);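 also: FRK tested as one member of a kinome panel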
[17] = target: Protein kinase C delta type (Homo sapiens, UniProt Q05655)
[18] = target: Maternal embryonic leucine zipper kinase (Homo sapiens, UniProt Q14680)
[19] = target: MAP kinase-activated protein kinase 3 (Homo sapiens, UniProt Q16644);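 also: value comes from a kinome-wide profiling panel in which MAPKAPK3 is one of the panel members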
[20] = target: Protein kinase C iota type (Homo sapiens, UniProt P41743);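 also: measured within a kinome-wide kinase panel, PRKCI as panel member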
[21] = target: Serine/threonine-protein kinase PLK1 (Homo sapiens, UniProt P53350);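 also: PLK1 measured as one member of a kinome-wide profiling panel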
[22] = target: Tyrosine-protein kinase SYK (Homo sapiens, UniProt P43405)
[23] = target: Vascular endothelial growth factor receptor 3 (Homo sapiens, UniProt P35916);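 also: value from a kinome-wide profiling panel, with FLT4 as the panel member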
[24] = target: Eukaryotic elongation factor 2 kinase (Homo sapiens, UniProt O00418)
[25] = target: G protein-coupled receptor kinase 5 (Homo sapiens, UniProt P34947); assay: Navigating the Kinome. Panel member name: GPRK5
[26] = target: Cyclin-dependent kinase 5 (Homo sapiens, UniProt Q00535);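 also: CDK5 measured as one member of a kinase profiling panel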
Chain of Cyclin-dependent kinase 5 (Q00535 whole entry): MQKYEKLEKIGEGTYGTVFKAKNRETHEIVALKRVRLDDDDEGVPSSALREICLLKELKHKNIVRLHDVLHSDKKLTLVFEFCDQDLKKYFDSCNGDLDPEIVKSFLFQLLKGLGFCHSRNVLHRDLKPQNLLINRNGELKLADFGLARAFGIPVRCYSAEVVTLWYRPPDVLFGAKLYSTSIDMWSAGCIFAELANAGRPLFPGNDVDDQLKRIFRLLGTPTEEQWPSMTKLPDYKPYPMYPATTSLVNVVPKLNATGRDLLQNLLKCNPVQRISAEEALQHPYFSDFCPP

Chain of Serine/threonine-protein kinase 17A (Q9UEE5 whole entry): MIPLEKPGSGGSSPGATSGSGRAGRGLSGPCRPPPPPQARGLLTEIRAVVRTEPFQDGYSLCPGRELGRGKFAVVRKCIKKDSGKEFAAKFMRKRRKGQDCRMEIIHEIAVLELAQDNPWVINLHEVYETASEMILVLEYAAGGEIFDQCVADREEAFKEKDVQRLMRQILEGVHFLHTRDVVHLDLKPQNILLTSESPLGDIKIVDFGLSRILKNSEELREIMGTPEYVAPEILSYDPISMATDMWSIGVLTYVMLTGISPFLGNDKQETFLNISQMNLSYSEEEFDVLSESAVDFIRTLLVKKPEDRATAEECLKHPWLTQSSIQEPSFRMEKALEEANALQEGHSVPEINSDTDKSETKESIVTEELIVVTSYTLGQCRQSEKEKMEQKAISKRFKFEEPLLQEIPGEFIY
Chain of G protein-coupled receptor kinase 5 (P34947 whole entry): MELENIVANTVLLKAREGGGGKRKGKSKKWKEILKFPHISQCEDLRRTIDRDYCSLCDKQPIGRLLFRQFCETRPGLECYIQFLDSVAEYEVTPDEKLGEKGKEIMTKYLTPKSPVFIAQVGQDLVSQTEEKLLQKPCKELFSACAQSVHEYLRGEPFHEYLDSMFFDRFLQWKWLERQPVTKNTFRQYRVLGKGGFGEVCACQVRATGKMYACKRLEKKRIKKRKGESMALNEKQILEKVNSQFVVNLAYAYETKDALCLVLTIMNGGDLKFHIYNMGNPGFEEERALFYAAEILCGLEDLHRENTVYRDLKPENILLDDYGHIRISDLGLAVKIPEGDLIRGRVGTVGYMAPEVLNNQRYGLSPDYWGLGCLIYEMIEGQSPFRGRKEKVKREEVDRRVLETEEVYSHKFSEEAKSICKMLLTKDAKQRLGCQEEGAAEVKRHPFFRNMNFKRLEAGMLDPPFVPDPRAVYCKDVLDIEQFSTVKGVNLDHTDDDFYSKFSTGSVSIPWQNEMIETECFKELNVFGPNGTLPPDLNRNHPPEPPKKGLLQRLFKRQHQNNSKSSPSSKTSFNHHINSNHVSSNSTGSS
Chain of MAP kinase-activated protein kinase 3 (Q16644 whole entry): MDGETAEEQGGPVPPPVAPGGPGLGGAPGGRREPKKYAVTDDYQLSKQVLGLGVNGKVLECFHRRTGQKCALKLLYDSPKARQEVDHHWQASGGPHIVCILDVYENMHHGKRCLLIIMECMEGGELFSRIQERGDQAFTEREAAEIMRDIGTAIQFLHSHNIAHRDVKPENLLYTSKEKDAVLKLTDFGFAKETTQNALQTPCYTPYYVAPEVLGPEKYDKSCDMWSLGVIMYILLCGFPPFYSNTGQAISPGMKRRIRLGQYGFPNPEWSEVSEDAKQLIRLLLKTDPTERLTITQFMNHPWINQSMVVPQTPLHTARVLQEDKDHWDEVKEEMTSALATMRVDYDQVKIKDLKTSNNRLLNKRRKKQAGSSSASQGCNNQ
Chain of Protein kinase C delta type (Q05655 whole entry): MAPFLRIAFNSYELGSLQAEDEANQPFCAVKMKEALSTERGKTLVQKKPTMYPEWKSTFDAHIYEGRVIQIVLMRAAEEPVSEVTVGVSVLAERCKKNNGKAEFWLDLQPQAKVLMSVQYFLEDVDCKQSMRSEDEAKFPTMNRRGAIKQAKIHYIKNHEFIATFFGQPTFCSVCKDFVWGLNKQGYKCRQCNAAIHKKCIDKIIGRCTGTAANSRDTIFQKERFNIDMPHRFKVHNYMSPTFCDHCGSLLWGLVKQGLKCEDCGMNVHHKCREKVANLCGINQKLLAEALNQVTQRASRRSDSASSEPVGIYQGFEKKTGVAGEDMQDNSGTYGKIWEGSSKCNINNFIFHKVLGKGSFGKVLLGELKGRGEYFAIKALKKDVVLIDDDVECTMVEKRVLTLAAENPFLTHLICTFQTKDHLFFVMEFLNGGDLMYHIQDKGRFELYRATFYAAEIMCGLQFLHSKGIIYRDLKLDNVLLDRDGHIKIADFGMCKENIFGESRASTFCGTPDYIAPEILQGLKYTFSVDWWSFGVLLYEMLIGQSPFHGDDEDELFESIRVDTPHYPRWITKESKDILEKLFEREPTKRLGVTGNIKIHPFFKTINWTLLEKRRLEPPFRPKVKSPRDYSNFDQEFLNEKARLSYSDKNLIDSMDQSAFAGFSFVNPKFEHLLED
Chain of STE20-like serine/threonine-protein kinase (Q9H2G2 whole entry): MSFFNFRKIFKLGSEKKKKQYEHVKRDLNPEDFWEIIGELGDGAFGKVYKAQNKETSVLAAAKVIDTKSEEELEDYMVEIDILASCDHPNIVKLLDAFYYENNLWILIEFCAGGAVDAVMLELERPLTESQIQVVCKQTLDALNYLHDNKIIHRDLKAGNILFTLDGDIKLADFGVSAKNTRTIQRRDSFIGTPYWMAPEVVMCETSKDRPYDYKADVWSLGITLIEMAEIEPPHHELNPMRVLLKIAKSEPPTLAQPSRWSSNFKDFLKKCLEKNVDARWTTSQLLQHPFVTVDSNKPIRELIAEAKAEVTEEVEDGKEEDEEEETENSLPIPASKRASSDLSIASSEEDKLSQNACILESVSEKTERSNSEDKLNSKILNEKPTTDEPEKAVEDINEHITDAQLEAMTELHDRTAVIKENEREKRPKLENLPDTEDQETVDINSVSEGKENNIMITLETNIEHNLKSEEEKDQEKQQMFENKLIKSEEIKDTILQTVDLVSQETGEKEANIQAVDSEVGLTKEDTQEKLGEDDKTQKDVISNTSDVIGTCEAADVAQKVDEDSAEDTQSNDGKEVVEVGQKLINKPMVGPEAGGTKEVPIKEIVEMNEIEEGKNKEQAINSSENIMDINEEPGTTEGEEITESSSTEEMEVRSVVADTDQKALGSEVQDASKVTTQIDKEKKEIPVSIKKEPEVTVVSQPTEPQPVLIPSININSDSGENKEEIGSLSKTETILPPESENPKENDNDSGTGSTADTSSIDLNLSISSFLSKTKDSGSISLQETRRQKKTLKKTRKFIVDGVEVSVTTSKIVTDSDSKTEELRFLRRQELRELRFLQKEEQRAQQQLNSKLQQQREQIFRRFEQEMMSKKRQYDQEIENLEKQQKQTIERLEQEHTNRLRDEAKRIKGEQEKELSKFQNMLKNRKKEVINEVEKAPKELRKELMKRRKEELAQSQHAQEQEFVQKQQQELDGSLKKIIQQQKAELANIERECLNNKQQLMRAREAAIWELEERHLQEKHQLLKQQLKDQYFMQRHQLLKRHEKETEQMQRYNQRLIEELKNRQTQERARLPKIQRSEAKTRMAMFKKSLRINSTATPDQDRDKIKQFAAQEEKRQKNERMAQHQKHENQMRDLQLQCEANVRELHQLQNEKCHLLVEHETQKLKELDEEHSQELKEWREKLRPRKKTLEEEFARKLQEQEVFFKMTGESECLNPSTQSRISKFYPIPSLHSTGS
Chain of Cyclin-dependent kinase 1 (P06493 whole entry): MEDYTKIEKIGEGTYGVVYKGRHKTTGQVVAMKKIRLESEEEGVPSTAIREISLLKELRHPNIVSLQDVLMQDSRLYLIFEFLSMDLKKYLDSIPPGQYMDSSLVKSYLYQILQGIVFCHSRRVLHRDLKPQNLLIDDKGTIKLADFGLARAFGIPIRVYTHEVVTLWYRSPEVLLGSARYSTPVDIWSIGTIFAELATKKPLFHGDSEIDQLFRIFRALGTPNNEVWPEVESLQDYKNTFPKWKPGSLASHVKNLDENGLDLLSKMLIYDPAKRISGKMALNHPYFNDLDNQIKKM
Chain of RAC-gamma serine/threonine-protein kinase (Q9Y243 whole entry): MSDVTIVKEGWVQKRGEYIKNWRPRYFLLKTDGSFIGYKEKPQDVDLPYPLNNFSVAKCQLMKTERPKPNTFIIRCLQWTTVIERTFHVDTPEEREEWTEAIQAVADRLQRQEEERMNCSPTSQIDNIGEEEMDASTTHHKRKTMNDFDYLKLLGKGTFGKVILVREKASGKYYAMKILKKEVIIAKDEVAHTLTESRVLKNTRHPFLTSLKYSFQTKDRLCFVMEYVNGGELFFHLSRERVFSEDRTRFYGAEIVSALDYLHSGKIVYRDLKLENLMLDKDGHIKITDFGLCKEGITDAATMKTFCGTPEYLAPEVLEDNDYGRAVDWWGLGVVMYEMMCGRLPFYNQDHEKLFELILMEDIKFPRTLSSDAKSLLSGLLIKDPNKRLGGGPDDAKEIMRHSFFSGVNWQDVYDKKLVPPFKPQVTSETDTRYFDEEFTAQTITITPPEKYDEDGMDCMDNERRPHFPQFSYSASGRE
Chain of Cell division cycle 7-related protein kinase (O00311 whole entry): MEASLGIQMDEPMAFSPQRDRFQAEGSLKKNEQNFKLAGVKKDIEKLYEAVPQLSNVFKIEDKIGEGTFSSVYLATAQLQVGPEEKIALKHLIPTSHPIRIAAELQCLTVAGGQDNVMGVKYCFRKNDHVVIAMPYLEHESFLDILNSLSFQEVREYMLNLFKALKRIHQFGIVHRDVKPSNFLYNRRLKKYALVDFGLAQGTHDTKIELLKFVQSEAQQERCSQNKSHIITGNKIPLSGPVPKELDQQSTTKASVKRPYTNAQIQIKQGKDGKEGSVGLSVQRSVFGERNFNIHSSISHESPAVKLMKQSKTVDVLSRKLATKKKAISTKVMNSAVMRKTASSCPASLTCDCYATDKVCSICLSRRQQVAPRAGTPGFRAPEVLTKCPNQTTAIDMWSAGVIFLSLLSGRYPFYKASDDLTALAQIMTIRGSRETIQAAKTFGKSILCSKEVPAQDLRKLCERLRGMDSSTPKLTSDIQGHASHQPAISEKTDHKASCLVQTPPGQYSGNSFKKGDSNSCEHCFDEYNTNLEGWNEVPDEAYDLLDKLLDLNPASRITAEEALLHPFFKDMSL

With `O=C1C2=[N+]([O-])[C@H]3CCCC[C@H]3[N+]([O-])=C2c2ccccc21` the IC50 [1] was 21.5 µM (active), the EC50 [2] was 14.9 µM (active) and the IC50 [3] was 18.1 µM (active). For the same compound, the IC50 [4] was 5.98 µM (active).
For `NC1CCC(Nc2nccc(-c3c[nH]c4ncccc34)n2)CC1` (stereo unspecified), the Ki [5] was 6.31 nM (active), the Ki [6] was 794 nM (active) and the Ki [7] was > 3.98 µM (inactive). For the same compound, the Ki [8] was 3.98 nM (active), the Ki [9] was 631 nM (active) and the Ki [10] was 5.01 nM (active). The Ki [11] was > 1.58 µM (inactive), the Ki [12] was 398 nM (active) and the Ki [13] was > 1.58 µM (inactive). The Ki [14] was 31.6 nM (active), the Ki [15] was 25.1 nM (active) and the Ki [16] was 501 nM (active). For the same compound, the Ki [17] was 3.16 nM (active), the Ki [18] was 126 nM (active) and the Ki [19] was > 10 µM (inactive). For the same compound, the Ki [20] was 31.6 nM (active), the Ki [21] was > 7.94 µM (inactive) and the Ki [22] was > 1.58 µM (inactive).
In the case of `COC(C(=O)N1Cc2[nH]nc(NC(=O)c3ccc(N4CCN(C)CC4)cc3)c2C1)c1ccccc1` (stereo unspecified), the Ki [23] was 158 nM (active), the Ki [24] was > 3.98 µM (inactive) and the Ki [25] was > 3.98 µM (inactive).
In the case of `CC(C)(O)c1cn(-c2ccc3[nH]ncc3c2)nn1`, the Ki [26] was 5.01 µM (active).
